From the supplement of paper PMC10307832

How the values were obtained:
Experiment in all cases: relative viability (nuclei count vs DMSO), 5 days (fraction); higher = more cells survive
AT9283 + Tozasertib = compound: O=C(Nc1c[nH]nc1-c1nc2ccc(CN3CCOCC3)cc2[nH]1)NC1CC1 [AT9283] + Cc1cc(Nc2cc(N3CCN(C)CC3)nc(Sc3ccc(NC(=O)C4CC4)cc3)n2)n[nH]1 [Tozasertib] (partner 0.1 µM)
In short: (§1)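 Lung cancer cell lines, seeded in 1536-well plates, were treated the following day by pin tool with a single drug or with five library-drug doses (not always all listed) in √10 steps on top of a fixed anchor-drug dose. Cells were fixed and nuclei stained in one step after 5 days, and nuclei were counted. Relative viability is the nuclei count for treated wells divided by that for vehicle wells, reported as medians of duplicate plates.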

AT9283 + Vorinostat = compound: O=C(Nc1c[nH]nc1-c1nc2ccc(CN3CCOCC3)cc2[nH]1)NC1CC1 [AT9283] + O=C(CCCCCCC(=O)Nc1ccccc1)NO [Vorinostat] (partner 1 µM)
In short: as §1

AT9283 + Pemetrexed = compound: O=C(Nc1c[nH]nc1-c1nc2ccc(CN3CCOCC3)cc2[nH]1)NC1CC1 [AT9283] + Nc1nc2[nH]cc(CCc3ccc(C(=O)N[C@@H](CCC(=O)O)C(=O)O)cc3)c2c(=O)[nH]1 [Pemetrexed] (partner 0.2 µM)
In short: as §1

Erlotinib + Foretinib = compound: C#Cc1cccc(Nc2ncnc3cc(OCCOC)c(OCCOC)cc23)c1 [Erlotinib] + COc1cc2c(Oc3ccc(NC(=O)C4(C(=O)Nc5ccc(F)cc5)CC4)cc3F)ccnc2cc1OCCCN1CCOCC1 [Foretinib] (partner 0.25 µM)
In short: as §1

Erlotinib + Pemetrexed = compound: C#Cc1cccc(Nc2ncnc3cc(OCCOC)c(OCCOC)cc23)c1 [Erlotinib] + Nc1nc2[nH]cc(CCc3ccc(C(=O)N[C@@H](CCC(=O)O)C(=O)O)cc3)c2c(=O)[nH]1 [Pemetrexed] (partner 0.2 µM)
In short: as §1

Row | Cell Line | relative viability (AT9283 + Tozasertib; first compound 0.003 µM) | relative viability (AT9283 + Tozasertib; first compound 0.03 µM) | relative viability (AT9283 + Tozasertib; first compound 0.09487 µM) | relative viability (AT9283 + Tozasertib; first compound 0.3 µM) | relative viability (AT9283 + Vorinostat; first compound 0.003 µM) | relative viability (AT9283 + Vorinostat; first compound 0.03 µM) | relative viability (AT9283 + Vorinostat; first compound 0.09487 µM) | relative viability (AT9283 + Vorinostat; first compound 0.3 µM) | relative viability (AT9283 + Pemetrexed; first compound 0.003 µM) | relative viability (AT9283 + Pemetrexed; first compound 0.03 µM) | relative viability (AT9283 + Pemetrexed; first compound 0.09487 µM) | relative viability (AT9283 + Pemetrexed; first compound 0.3 µM) | relative viability (Erlotinib + Foretinib; first compound 0.02 µM) | relative viability (Erlotinib + Foretinib; first compound 0.2 µM) | relative viability (Erlotinib + Foretinib; first compound 0.6325 µM) | relative viability (Erlotinib + Foretinib; first compound 2 µM) | relative viability (Erlotinib + Pemetrexed; first compound 0.02 µM) | relative viability (Erlotinib + Pemetrexed; first compound 0.2 µM) | relative viability (Erlotinib + Pemetrexed; first compound 0.6325 µM) | relative viability (Erlotinib + Pemetrexed; first compound 2 µM)
1 | HOP-62 | 0.34 | 0.263 | 0.213 | 0.265 | 0.637 | 0.262 | 0.183 | 0.186 | 0.439 | 0.192 | 0.144 | 0.153 | 1.22 | 1.08 | 1.15 | 0.89 | 0.285 | 0.332 | 0.255 | 0.312
2 | PC-14 | 0.504 | 0.387 | 0.0959 | 0.0742 | 0.79 | 0.17 | 0.107 | 0.114 | 0.145 | 0.0954 | 0.0681 | 0.0563 | 0.76 | 0.23 | 0.199 | 0.153 | 0.11 | 0.168 | 0.15 | 0.133
3 | UMC-11 | 0.19 | 0.221 | 0.207 | 0.21 | 0.359 | 0.109 | 0.117 | 0.124 | 0.768 | 0.158 | 0.196 | 0.193 | 1.04 | 0.973 | 1.08 | 1.08 | 0.759 | 0.746 | 0.851 | 0.668
4 | NCI-H2405 | 0.689 | 0.418 | 0.272 | 0.261 | 0.959 | 0.576 | 0.3 | 0.24 | 0.995 | 0.977 | 0.324 | 0.22 |  | 1.02 | 1.09 | 1.01 | 0.893 | 1.1 | 1.06 | 1.09
5 | HARA | 0.154 | 0.1 | 0.0825 | 0.0852 | 0.365 | 0.453 | 0.122 | 0.0962 | 0.217 | 0.239 | 0.167 | 0.166 | 0.929 | 0.602 | 0.636 | 0.401 | 0.259 | 0.21 | 0.186 | 0.222
6 | NCI-H1437 | 0.426 | 0.321 | 0.215 | 0.238 | 0.833 | 0.469 | 0.312 | 0.295 | 0.306 | 0.298 | 0.264 | 0.225 | 1.31 | 1.23 | 1.24 | 1.2 | 0.33 | 0.33 | 0.395 | 0.27
7 | COR-L23 | 0.278 | 0.135 | 0.112 | 0.132 | 0.443 | 0.119 | 0.0932 | 0.0899 | 0.213 | 0.165 | 0.137 | 0.137 | 1.11 | 0.947 | 1.18 | 0.928 | 0.205 | 0.178 | 0.195 | 0.19
8 | NCI-H1395 | 0.61 | 0.553 | 0.399 | 0.355 | 0.579 | 0.494 | 0.337 | 0.299 | 0.799 | 0.764 | 0.322 | 0.34 | 1.04 | 0.906 | 1.13 | 0.975 | 0.807 | 0.959 | 0.868 | 0.794
9 | NCI-H1650 | 0.386 | 0.328 | 0.36 | 0.35 | 0.608 | 0.487 | 0.375 | 0.194 | 0.358 | 0.362 | 0.361 | 0.28 | 0.747 | 0.594 | 0.697 | 0.699 | 0.337 | 0.324 | 0.352 | 0.298
10 | NCI-H358 | 0.108 | 0.0953 | 0.107 | 0.0809 | 0.54 | 0.119 | 0.0833 | 0.0819 | 0.164 | 0.124 | 0.111 | 0.112 | 0.656 | 0.408 | 0.39 | 0.176 | 0.176 | 0.156 | 0.147 | 0.164
11 | NCI-H2170 | 0.748 | 0.276 | 0.164 | 0.157 | 0.765 | 0.514 | 0.272 | 0.13 | 0.464 | 0.234 | 0.2 | 0.132 | 1.04 | 1.05 | 0.935 | 0.656 | 0.275 | 0.261 | 0.242 | 0.237
12 | 201T | 0.871 | 0.6 | 0.35 | 0.302 | 0.844 | 0.653 | 0.471 | 0.304 | 0.292 | 0.297 | 0.279 | 0.306 |  |  | 1.17 | 0.888 | 0.339 | 0.336 | 0.348 | 0.32
13 | NCI-H2342 | 0.555 | 0.453 | 0.403 | 0.344 | 0.804 | 0.576 | 0.59 | 0.409 | 0.793 | 0.619 | 0.603 | 0.387 | 1.08 | 0.899 | 0.932 |  | 0.707 | 0.822 | 0.715 | 0.583
14 | CAL-12T | 0.31 | 0.29 | 0.212 | 0.215 | 0.804 | 0.394 | 0.237 | 0.166 | 1.36 | 1.03 | 0.572 | 0.31 | 1.04 | 1.04 | 0.513 | 0.484 | 1.43 | 1.15 | 0.929 | 0.662
15 | NCI-H596 | 0.943 | 0.839 | 0.933 | 0.553 | 0.642 | 0.675 | 0.686 | 0.428 | 0.512 | 0.574 | 0.529 | 0.462 | 0.759 | 0.847 | 0.995 | 0.758 | 0.609 | 0.455 | 0.489 | 0.457
16 | NCI-H1651 | 0.699 | 0.638 | 0.506 | 0.316 | 0.449 | 0.39 | 0.393 | 0.218 | 0.48 | 0.506 | 0.528 | 0.378 | 0.704 | 0.753 |  | 0.753 | 0.619 | 0.417 | 0.509 | 0.52
